Test results taken from US8148367B2 (Takeda Pharmaceutical Company Limited, priority 2008, dated 2012).

What follows are compounds tested against T1, Recombinant human renin (Homo sapiens, UniProt P00797) (assay: In vitro enzymatic activity assay of renin inhibitors (fluorescence, QXL520/HiLyteFluo488 peptide substrate)). Details: recombinant human renin 3 nM, 1 μM substrate, pre-incubated 10 minutes at 37° C., incubation one hour, pH 7.4, 5% DMSO; read-out: IC50 of Exemplified Compounds Against Renin.
T1 construct: isolate the active form (residues 67-406); made in house; host or cells: FreeStyle 293-F cells, transient expression of pcDNA3.1(+)/hREN
T1 sequence (P00797 67-406): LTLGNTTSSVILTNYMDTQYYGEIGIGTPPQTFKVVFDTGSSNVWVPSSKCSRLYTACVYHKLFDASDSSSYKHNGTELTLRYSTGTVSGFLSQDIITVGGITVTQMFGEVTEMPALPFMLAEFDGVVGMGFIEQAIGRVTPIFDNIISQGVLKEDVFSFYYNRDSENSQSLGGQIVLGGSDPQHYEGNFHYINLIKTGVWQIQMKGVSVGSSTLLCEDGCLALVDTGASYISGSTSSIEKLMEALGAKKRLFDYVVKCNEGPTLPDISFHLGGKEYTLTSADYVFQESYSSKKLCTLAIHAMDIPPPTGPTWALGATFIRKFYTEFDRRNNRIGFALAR
Assay type: biochemical

Row | SMILES | IC50 [nM]
1 | COCCCOc1cccc(-n2c(-c3ccccc3)c(C(=O)N3CCNCC3)n(Cc3cccc(OCCOC)c3)c2=O)c1 [Example 192, 1-(3-(2-Methoxyethoxy)benzyl)-3-(3-(3-methoxypropoxy)phenyl)-4-phenyl-5-(piperazine-1-carbonyl)-1H-imidazol-2(3H)-one] | > 1000
2 | Cc1ccccc1-n1c(-c2ccccc2)c(C(=O)N2CCNCC2)n(CCNS(=O)(=O)c2ccccc2)c1=O [Example 155, N-(2-(2-oxo-4-Phenyl-5-(piperazine-1-carbonyl)-3-o-tolyl-2,3-dihydro-1H-imidazol-1-yl)ethyl)benzenesulfonamide] | > 1000
3 | O=C(c1[nH]c(=O)n(-c2ccccc2)c1C1CC1)N1CCNCC1 [Example 24, 5-Cyclopropyl-1-phenyl-4-(piperazine-1-carbonyl)-1H-imidazol-2(3H)-one] | > 1000
4 | O=C(c1[nH]c(=O)n(-c2ccccn2)c1-c1ccccc1)N1CCNCC1 [Example 19, 5-Phenyl-4-(piperazine-1-carbonyl)-1-(pyridin-2-yl)-1H-imidazol-2(3H)-one] | > 1000
5 | O=C(c1ccco1)N1CCCC(n2c(-c3ccccc3)c(C(=O)N3CCNCC3)n(Cc3ccccc3)c2=O)C1 (stereo not shown) [Example 97, 1-Benzyl-3-(1-(furan-2-carbonyl)piperidin-3-yl)-4-phenyl-5-(piperazine-1-carbonyl)-1H-imidazol-2(3H)-one] | > 1000
6 | O=C(c1c(-c2ccccc2)n(-c2cccc(N3CCOCC3)c2)c(=O)n1CCNS(=O)(=O)c1ccccc1)N1CCNCC1 [Example 185, N-(2-(3-(3-Morpholinophenyl)-2-oxo-4-phenyl-5-(piperazine-1-carbonyl)-2,3-dihydro-1H-imidazol-1-yl)ethyl)benzenesulfonamide] | > 1000
7 | Cc1ccccc1-n1c(-c2ccccc2)c(C(=O)N2CCNCC2)n(CCCNC(=O)c2ccccc2)c1=O [Example 156, N-(3-(2-oxo-4-Phenyl-5-(piperazine-1-carbonyl)-3-o-tolyl-2,3-dihydro-1H-imidazol-1-yl)propyl)benzamide] | > 1000
8 | CC(C)CC(=O)NCCn1c(C(=O)N2CCNCC2)c(-c2ccccc2)n(-c2cccc(N3CCOCC3)c2)c1=O [Example 178, 3-Methyl-N-(2-(3-(3-morpholinophenyl)-2-oxo-4-phenyl-5-(piperazine-1-carbonyl)-2,3-dihydro-1H-imidazol-1-yl)ethyl)butanamide] | > 1000
9 | COc1cccc(Cn2c(C(=O)N3CCNCC3)c(-c3ccccc3)n(C3CCCN(C(C)=O)C3)c2=O)c1 (stereo not shown) [Example 92, 1-(1-Acetylpiperidin-3-yl)-3-(3-methoxybenzyl)-5-phenyl-4-(piperazine-1 carbonyl)-1H-imidazol-2(3H)-one] | > 1000
10 | COCCCOc1cccc(-n2c(-c3ccccc3)c(C(=O)N3CCNCC3)n(Cc3cccc(Oc4ccccc4)c3)c2=O)c1 [Example 13, 1-(3-(3-methoxypropoxy)phenyl)-3-(3-phenoxybenzyl)-5-phenyl-4-(piperazine-1-carbonyl)-1H-imidazol-2(3H)-one] | > 1000
11 | COCCOc1cccc(-n2c(-c3cccc(Cl)c3)c(C(=O)N3CCNCC3)[nH]c2=O)c1 [Example 43, 5-(3-Chlorophenyl)-1-(3-(2-methoxyethoxy)phenyl)-4-(piperazine-1-carbonyl)-1H-imidazol-2(3H)-one] | > 1000
12 | O=C(c1[nH]c(=O)n(-c2ccccc2)c1-c1ccccc1)N1CCNCC1 [Example 18, 1,5-Diphenyl-4-(piperazine-1-carbonyl)-1H-imidazol-2(3H)-one] | > 1000
13 | COc1ccccc1-n1c(-c2ccccc2)c(C(=O)N2CCNCC2)n(CCNS(=O)(=O)c2ccccc2)c1=O [Example 158, N-(2-(3-(2-Methoxyphenyl)-2-oxo-4-phenyl-5-(piperazine-1-carbonyl)-2,3-dihydro-1H-imidazol-1-yl)ethyl)benzenesulfonamide] | > 1000
14 | Cc1ccccc1-n1c(-c2ccccc2)c(C(=O)N2CCNCC2)n(CCNC(=O)c2ccc(Cl)cc2)c1=O [Example 233, 4-Chloro-N-(2-(2-oxo-4-phenyl-5-(piperazine-1-carbonyl)-3-o-tolyl-2,3-dihydro-1H-imidazol-1-yl)ethyl)benzamide] | 500 to 1000
15 | Cc1ccccc1-n1c(-c2ccccc2)c(C(=O)N2CCNCC2)n(CCNC(=O)c2ccccc2Cl)c1=O [Example 231, 2-Chloro-N-(2-(2-oxo-4-phenyl-5-(piperazine-1-carbonyl)-3-o-tolyl-2,3-dihydro-1H-imidazol-1-yl)ethyl)benzamide] | > 1000
16 | CC(=O)N1CCCC(n2c(-c3ccccc3)c(C(=O)N3CCNCC3)n(Cc3ccccc3)c2=O)C1 (stereo not shown) [Example 93, 1-(1-Acetylpiperidin-3-yl)-3-benzyl-5-phenyl-4-(piperazine-1-carbonyl)-1H-imidazol-2(3H)-one] | > 1000
17 | Cc1ccccc1-n1c(-c2ccccc2)c(C(=O)N2CCNCC2)n(CCNC(=O)C2CCCCC2)c1=O [Example 237, N-(2-(2-oxo-4-phenyl-5-(piperazine-1-carbonyl)-3-o-tolyl-2,3-dihydro-1H-imidazol-1-yl)ethyl)cyclohexanecarboxamide] | > 1000

Results, then the compound that gave them:

Row | IC50 [nM] | SMILES
18 | < 100 | O=C(c1[nH]c(=O)n(-c2ccc3c(c2)NCCC3)c1-c1ccccc1)N1CCNC[C@H]1Cc1ccccc1 [Example 132, (R)-4-(2-Benzylpiperazine-1-carbonyl)-5-phenyl-1-(1,2,3,4-tetrahydroquinolin-7-yl)-1H-imidazol-2(3H)-one]
19 | 100 to 500 | O=C(Nc1ccccc1-n1c(-c2ccccc2)c(C(=O)N2CCNC[C@H]2Cc2ccccc2)[nH]c1=O)C1CC1 [Example 120, (R)—N-(2-(4-(2-Benzylpiperazine-1-carbonyl)-2-oxo-5-phenyl-2,3-dihydro-1H-imidazol-1-yl)phenyl)cyclopropanecarboxamide]
20 | 100 to 500 | O=C(c1c(-c2ccccc2)n(-c2ccccc2)c(=O)n1Cc1ccc(F)c(F)c1)N1CCNCC1 [Example 52, 1-(3,4-Difluorobenzyl)-3,4-diphenyl-5-(piperazine-1-carbonyl)-1H-imidazol-2(3H)-one]
21 | 500 to 1000 | Cc1ccccc1-n1c(-c2ccccc2)c(C(=O)N2CCNCC2)n(CCNC(=O)Nc2ccccc2Cl)c1=O [Example 212, 1-(2-Chlorophenyl)-3-(2-(2-oxo-4-phenyl-5-(piperazine-1-carbonyl)-3-o-tolyl-2,3-dihydro-1H-imidazol-1-yl)ethyl)urea]
22 | 100 to 500 | Cc1ccccc1-n1c(-c2ccccc2)c(C(=O)N2CCNCC2)n(CCCNC(=O)Nc2ccccc2Cl)c1=O [Example 224, 1-(2-Chlorophenyl)-3-(3-(2-oxo-4-phenyl-5-(piperazine-1-carbonyl)-3-o-tolyl-2,3-dihydro-1H-imidazol-1-yl)propyl)urea]
23 | 500 to 1000 | COCCCOc1cccc(-n2c(-c3ccccc3)c(C(=O)N3CCNCC3)[nH]c2=O)c1 [Example 35, 1-(3-(3-Methoxypropoxy)phenyl)-5-phenyl-4-(piperazine-1-carbonyl)-1H-imidazol-2(3H)-one]
24 | < 100 | O=C(c1c(-c2ccccc2)n(-c2cccc(N3CCOCC3)c2)c(=O)n1CCCNS(=O)(=O)c1ccccc1Cl)N1CCNCC1 [Example 194, 2-Chloro-N-(3-(3-(3-morpholinophenyl)-2-oxo-4-phenyl-5-(piperazine-1-carbonyl)-2,3-dihydro-1H-imidazol-1-yl)propyl)benzenesulfonamide]
25 | < 100 | Cc1ccccc1-n1c(-c2ccccc2)c(C(=O)N2CCNC[C@H]2Cc2ccccc2)[nH]c1=O [Example 116, (R)-4-(2-Benzylpiperazine-1-carbonyl)-5-phenyl-1-o-tolyl-1H-imidazol-2(3H)-one]
26 | 100 to 500 | CCS(=O)(=O)Nc1ccccc1-n1c(-c2ccccc2)c(C(=O)N2CCNC[C@H]2Cc2ccccc2)[nH]c1=O [Example 127, (R)—N-(2-(4-(2-Benzylpiperazine-1-carbonyl)-2-oxo-5-phenyl-2,3-dihydro-1H-imidazol-1-yl)phenyl)ethanesulfonamide]
27 | 500 to 1000 | CC(=O)N1CCCC(n2c(-c3ccccc3)c(C(=O)N3CCNC[C@H]3Cc3ccccc3)[nH]c2=O)C1 (stereo partly drawn) [Example 104, 1-(1-Acetylpiperidin-3-yl)-4-((R)-2-benzylpiperazine-1-carbonyl)-5-phenyl-1H-imidazol-2(3H)-one]
28 | 100 to 500 | O=C(c1c(-c2ccccc2)n(C2CCCN(S(=O)(=O)c3ccccc3)C2)c(=O)n1Cc1cccc(Oc2ccccc2)c1)N1CCNCC1 (stereo not shown) [Example 102, 1-(3-Phenoxybenzyl)-4-phenyl-3-(1-(phenylsulfonyl)piperidin-3-yl)-5-(piperazine-1-carbonyl)-1H-imidazol-2(3H)-one]
29 | < 100 | CS(=O)(=O)Nc1ccccc1-n1c(-c2ccccc2)c(C(=O)N2CCNC[C@H]2Cc2ccccc2)[nH]c1=O [Example 118, (R)—N-(2-(4-(2-Benzylpiperazine-1-carbonyl)-2-oxo-5-phenyl-2,3-dihydro-1H-imidazol-1-yl)phenyl)methanesulfonamide]
30 | < 100 | CCCCS(=O)(=O)Nc1ccccc1-n1c(-c2ccccc2)c(C(=O)N2CCNC[C@H]2Cc2ccccc2)[nH]c1=O [Example 128, (R)—N-(2-(4-(2-Benzylpiperazine-1-carbonyl)-2-oxo-5-phenyl-2,3-dihydro-1H-imidazol-1-yl)phenyl)butane-1-sulfonamide]
31 | 100 to 500 | COC1CCc2ccc(-n3c(-c4ccccc4)c(C(=O)N4CCNC[C@H]4Cc4ccccc4)[nH]c3=O)cc21 (stereo partly drawn) [Example 138, 4-((R)-2-Benzylpiperazine-1-carbonyl)-1-(3-methoxy-2,3-dihydro-1H-inden-5-yl)-5-phenyl-1H-imidazol-2(3H)-one]
